Assay results reported in patent publication US20030175438A1, “Treatments of solid substrates to enhance durability of treatments placed thereon” (priority 2002, published 2003).

Experiments:
[1] = test system: E. coli; experiment: CTM-0923 Dynamic Shake Flask Test (antimicrobial efficacy of treated fabric); format: cell-based; parameters: concentration or dose not given beside the values
Experimental: Sample Preparation: Fabric samples were obtained from the JoAnn fabric chain and were commercial fabrics. […] The treatment solutions were allowed to hydrolyze from the trimethoxysilyl form to the trisilanol form before adding the fabrics. This takes only a few minutes to essentially complete. The solution temperature was raised to 100° C. before treating the fabrics for 60 seconds by immersion in the solutions with moderate agitation of the solution within the flask. After removing the samples from the hot solution, they were nip rolled to remove excess liquid. […] The samples were air dried before testing unless otherwise noted. The Extraction, stated in percent, was measured using the Bromphenol Blue Extraction Method using spectrophotometric determination. This method is CTM 0824, which has been modified for use herein in the following manner. The chlorinated solvent has been eliminated and the wavelength is 595 nm. Further, Dow Corning® […] has been substituted for the Triton.RTM. X-100 wetting agent of the test. What is measured is the diminution of the BPB Absorbance at 595 nm relative to the BPB standard solution and it is reported in percent Extraction. Antimicrobial efficacy was determined using the CTM-0923 Dynamic Shake Flask Test unless otherwise stated. Samples were air dried before testing. The % extraction was measured using the BPB extraction Method using spectrophotometric determination at 595 nm. Antimicrobial efficacy was determined, when applicable, using the ASTM CTM 0923 Dynamic Shake Flask Test. The substrate may be either wet or dry. The testing results can be found on Tables XI and XII, respectively, infra.

[2] = Bromphenol Blue (BPB) Extraction Method, spectrophotometric at 595 nm (modified CTM 0824), on treated fabric; format: physicochemical; conditions: for BOILED IN WATER % EXTRACTION / CHANGE / NO BOIL % EXTRACTION: Table XII

Structure (SMILES): CCCCCCCCCCCCCCCCCC[N+](C)(C)CCC[Si](OC)(OC)OC.[Cl-] [AMT, N, N-dimethyl-N-Octadecyl-3-(trimethoxysilyl)propanaminium chloride]
- Efficacy - % Reduction ([1]; ACRYLIC/MODACRYLIC, boiled 30 minutes, Table V): 84%
- Efficacy - % Reduction ([1]; ACRYLIC/MODACRYLIC, not boiled, Table V): 90%
- Efficacy - % Reduction ([1]; COTTON, boiled 30 minutes, Table V): 99%
- DSF - % REDUCTION ([1]; COTTON, boiled 30 minutes, Table VIII): 99%
- DSF - % REDUCTION ([1]; COTTON, boiled, Table X): 93%
- Efficacy - % Reduction ([1]; COTTON, not boiled, Table V): 99%
- DSF - % REDUCTION ([1]; COTTON, not boiled, Table VIII): 99%
- DSF - % REDUCTION ([1]; COTTON, not boiled, Table X): 89%
- Efficacy - % Reduction ([1]; NYLON, boiled 30 minutes, Table II): 84%
- Efficacy - % Reduction ([1]; NYLON, boiled 30 minutes, Table V): 19%
- DSF - % REDUCTION ([1]; NYLON, boiled 30 minutes, Table VIII): 22%
- DSF - % REDUCTION ([1]; NYLON, boiled, Table X): 99%
- Efficacy - % Reduction ([1]; NYLON, not boiled, Table II): 90%
- Efficacy - % Reduction ([1]; NYLON, not boiled, Table V): 99%
- DSF - % REDUCTION ([1]; NYLON, not boiled, Table VIII): 99%
- DSF - % REDUCTION ([1]; NYLON, not boiled, Table X): 99%
- Efficacy - % Reduction ([1]; PET, boiled 30 minutes, Table II): 99%
- DSF - % REDUCTION ([1]; PET, boiled 30 minutes, Table VIII): 91%
- DSF - % REDUCTION ([1]; PET, boiled, Table X (untreated control 50)): 74%
- Efficacy - % Reduction ([1]; PET, not boiled, Table II): 99%
- DSF - % REDUCTION ([1]; PET, not boiled, Table VIII): 99%
- DSF - % REDUCTION ([1]; PET, not boiled, Table X (untreated control 50)): 79%
- Efficacy - % Reduction ([1]; RAYON, boiled 30 minutes, Table II): 19%
- DSF - % REDUCTION ([1]; RAYON, boiled 30 minutes, Table VIII): 94%
- DSF - % REDUCTION ([1]; RAYON, boiled, Table X): 99%
- Efficacy - % Reduction ([1]; RAYON, not boiled, Table II): 99%
- DSF - % REDUCTION ([1]; RAYON, not boiled, Table VIII): 99%
- DSF - % REDUCTION ([1]; RAYON, not boiled, Table X): 99%
- BOILED IN WATER % EXTRACTION ([2]; 130° C./5 minutes): 27%
- CHANGE ([2]; 130° C./5 minutes): −34%
- NO BOIL % EXTRACTION ([2]; 130° C./5 minutes): 61%
- CHANGE ([2]; 130° C./30 minutes): −41%
- NO BOIL % EXTRACTION ([2]; 130° C./30 minutes): 68%
- % Extraction @ 595 nm ([2]; ACRYLIC MODACRYLIC, boiled 30 minutes, Table IV): 45%
- % BPB EXTRACTION CHANGE ([2]; ACRYLIC MODACRYLIC, boiled vs not boiled, Table IV): −46%
- % Extraction @ 595 nm ([2]; ACRYLIC MODACRYLIC, not boiled, Table IV): 91%
- Boiling Durability % BPB EXTRACTION @ 595 nm ([2]; ACRYLIC, boiled 30 minutes, Table XVII): 14%
- % EXTRACTION CHANGE ([2]; ACRYLIC, boiled vs not boiled, Table XVII): −42%
- Boiling Durability % BPB EXTRACTION @ 595 nm ([2]; ACRYLIC, not boiled, Table XVII): 56%
- BOILED IN WATER % EXTRACTION ([2]; AIR DRIED): 37%
- CHANGE ([2]; AIR DRIED): −38%
- NO BOIL % EXTRACTION ([2]; AIR DRIED): 75%
- % BPB EXTRACTION @ 595 nm ([2]; COTTON, boiled 30 minutes, Table III): 95%
- % Extraction @ 595 nm ([2]; COTTON, boiled 30 minutes, Table IV): 94%
- % Extraction @ 595 nm ([2]; COTTON, boiled 30 minutes, Table VI): 94%
- % BPB EXTRACTION @ 595 nm ([2]; COTTON, boiled 30 minutes, Table XV): 92%
- % EXTRACTION CHANGE ([2]; COTTON, boiled vs not boiled, Table III): −1%
- % EXTRACTION CHANGE ([2]; COTTON, boiled vs not boiled, Table IX): −1%
- % EXTRACTION CHANGE ([2]; COTTON, boiled vs not boiled, Table VII): +2%
- % EXTRACTION CHANGE ([2]; COTTON, boiled vs not boiled, Table XV): −1%
- % BPB EXTRACTION @ 595 nm ([2]; COTTON, boiled, Table IX): 92%
- % BPB EXTRACTION @ 595 nm ([2]; COTTON, boiled, Table VII): 97%
- % BPB EXTRACTION @ 595 nm ([2]; COTTON, not boiled, Table III): 96%
- % Extraction @ 595 nm ([2]; COTTON, not boiled, Table IV): 95%
- % BPB EXTRACTION @ 595 nm ([2]; COTTON, not boiled, Table IX): 93%
- % Extraction @ 595 nm ([2]; COTTON, not boiled, Table VI): 94%
- % BPB EXTRACTION @ 595 nm ([2]; COTTON, not boiled, Table VII): 95%
- % BPB EXTRACTION @ 595 nm ([2]; COTTON, not boiled, oven dried 130° C. 5 minutes, Table XV): 93%
- % Extraction @ 595 nm ([2]; NYLON, boiled 30 minutes, Table I): 45%
- % BPB EXTRACTION @ 595 nm ([2]; NYLON, boiled 30 minutes, Table III): 20%
- % Extraction @ 595 nm ([2]; NYLON, boiled 30 minutes, Table IV): 45%
- % BPB EXTRACTION @ 595 nm ([2]; NYLON, boiled 30 minutes, Table XV): 30%
- Boiling Durability % BPB EXTRACTION @ 595 nm ([2]; NYLON, boiled 30 minutes, Table XVII): 26%
- % BPB Extraction (change on boiling) ([2]; NYLON, boiled vs not boiled, Table I): −37%
- % EXTRACTION CHANGE ([2]; NYLON, boiled vs not boiled, Table III): −57%
- % BPB EXTRACTION CHANGE ([2]; NYLON, boiled vs not boiled, Table IV): −25%
